In patent publication US7635691B2, “Use of CDP-choline for the prophylactic treatment of cerebral ischemia” (Ferrer Internacional, S.A., priority 2000, dated 2009):

Tested on: caspases 1, 2, 3, 6 and 8
Assay: Caspase expression (apoptosis markers) after permanent middle cerebral artery occlusion, model of cortical cerebral ischemia in the rat
Format: in vivo
Procedure: The effect of CDP-Choline on deferred nerve cell death (apoptosis) has been assessed in a model of cortical cerebral ischemia in the rat in accordance with the following experimental protocol:
All cerebral infarction tests were performed in male Sprague-Dawley rats weighing 220-270 g. Animals were housed, with free access to food and water, in temperature- and humidity-controlled rooms with a 12/12 h light-dark cycle.
Cerebral ischemia was induced by a permanent proximal occlusion of the middle cerebral artery using electrocoagulation. Under deep anesthesia, the rat head was clipped and an incision was made between the left ear and the left eye. Then, the cranium was exposed by sectioning the temporal muscle. Craniotomy was performed using a 1-2 mm drill behind the scaly fissure. The dura mater was drilled in order to expose the middle cerebral artery arm which was permanently coagulated.
Rats were randomly divided into three groups:
(a) After 30 minutes of ischemia, the animals in this group were treated with CDP-Choline (500 mg/kg) in 0.9% sterile physiologic saline (0.1 ml) administered intraperitoneally. This group is depicted in FIGS. 1 through 5 as “After.”
(b) Since 24 hours before ischemia and after 30 minutes of ischemia, the animals in this group received the same treatment as in group (a). This group is depicted in FIGS. 1 through 5 as “Before.”
(c) The animals in this group were used as control. After ischemia, they were treated with 0.9% physiologic saline vehicle (0.1 ml) administered intraperitoneally. This group is depicted in FIGS. 1 through 5 as “Control.”
The animals were allowed to recover at different times (30 min and 1, 4, 8, 12, 24 and 48 hours) before terminal anesthesia with ethyl ether. […]
For assessment of the effect of treatment, the expression of caspases 1, 2, 3, 6 and 8, as markers of apoptosis process, was measured 12 hours after infarction induction, whose results are shown in FIGS. 1, 2, 3, 4, and 5, respectively. […]

## C[N+](C)(C)CCOP(=O)(O)OP(=O)([O-])OC[C@H]1O[C@@H](n2ccc(N)nc2=O)[C@H](O)[C@@H]1O [CDP-Choline, cytidine-diphosphate-choline]
500 mg/kg intraperitoneally from 24 hours before ischemia and 30 minutes after ischemia ('Before') vs only 30 minutes after ischemia ('After'), 12 hours after infarction induction
  caspase level, treatment before and after ischemia compared with treatment only after ischemia: decreases caspase level more significantly than when administered only after infarction induction
Male Sprague-Dawley rats, CDP-Choline 500 mg/kg intraperitoneally, groups 'After' and 'Before' vs saline control, measured 12 hours after infarction induction, figures in immunofluorescence units
  expression of caspases 1, 2, 3, 6 and 8 as markers of apoptosis process, treated vs control: significant differences between treated and control animals
Summary statement in the description, rat focal ischemia model
  nerve cell apoptosis in the penumbra area: reduces nerve cell apoptosis in the penumbra area
